Results as given in US11339120B2, “Phenyl derivatives as cannabinoid receptor 2 agonists” (priority 2015, dated 2022).
Where two headings read alike, the source gives them in different places.

Columns and labels:
human CB2 receptors = molecular target: T1, human CB2 receptors (Homo sapiens, UniProt P34972); test: functional cAMP assay, CHO cells expressing human CB2; format: cell-based
T1 construct: expressed in transfected cells; host or cells: CHO cells
Description: (§1) CHO cells expressing human CB1 or CB2 receptors are seeded 17-24 hours prior to the experiment 50.000 cells per well in a black 96 well plate with flat clear bottom (Corning Costar #3904) in DMEM (Invitrogen No. 31331), 1×HT supplement, with 10% fetal calf serum and incubated at 5% CO2 and 37° C. in a humidified incubator. The growth medium was exchanged with Krebs Ringer Bicarbonate buffer with 1 mM IBMX and incubated at 30° C. for 30 min. Compounds were added to a final assay volume of 100 μl and incubated for 30 min at 30° C. Using the cAMP-Nano-TRF detection kit the assay (Roche Diagnostics) was stopped by the addition of 50 μl lysis reagent (Tris, NaCl, 1.5% Triton X100, 2.5% NP40, 10% NaN3) and 50 μl detection solutions (20 μM mAb Alexa700-cAMP 1:1, and 48 μM Ruthenium-2-AHA-cAMP) and shaken for 2 h at room temperature. The time-resolved energy transfer is measured by a TRF reader (Evotec Technologies GmbH), equipped with a ND:YAG laser as excitation source. The plate is measured twice with the excitation at 355 nm and at the emission with a delay of 100 ns and a gate of 100 ns, total exposure time 10 s at 730 (bandwidth 30 nm) or 645 nm (bandwidth 75 nm), respectively. The FRET signal is calculated as follows: FRET=T730-Alexa730-P(T645-B645) with P=Ru730-B730/Ru645-B645, where T730 is the test well measured at 730 nM, T645 is the test well measured at 645 nm, B730 and B645 are the buffer controls at 730 nm and 645 nm, respectively. cAMP content is determined from the function of a standard curve spanning from 10 μM to 0.13 nM cAMP.
(§2) EC50 values were determined using Activity Base analysis (ID Business Solution, Limited). The EC50 values for a wide range of cannabinoid agonists generated from this assay were in agreement with the values published in the scientific literature.

human CB1 receptors = molecular target: T2, human CB1 receptors (Homo sapiens, UniProt P21554); test: functional cAMP assay, CHO cells expressing human CB1; format: cell-based
T2 construct: expressed in transfected cells; host or cells: CHO cells
Description: as §1, §2

[1] = functional cAMP assay, CHO cells expressing human CB2, read-out: Human CB2 EC50

T1 sequence (P34972 whole entry): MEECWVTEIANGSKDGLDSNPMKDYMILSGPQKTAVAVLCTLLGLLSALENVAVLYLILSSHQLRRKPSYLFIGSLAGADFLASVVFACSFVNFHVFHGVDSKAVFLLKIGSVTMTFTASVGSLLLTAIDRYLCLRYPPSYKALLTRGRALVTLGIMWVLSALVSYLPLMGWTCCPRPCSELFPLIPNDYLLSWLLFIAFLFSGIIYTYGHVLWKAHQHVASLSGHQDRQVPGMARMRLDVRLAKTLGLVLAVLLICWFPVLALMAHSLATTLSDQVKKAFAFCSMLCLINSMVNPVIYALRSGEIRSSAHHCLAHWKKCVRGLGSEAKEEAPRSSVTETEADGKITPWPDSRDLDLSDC
T2 sequence (P21554 whole entry): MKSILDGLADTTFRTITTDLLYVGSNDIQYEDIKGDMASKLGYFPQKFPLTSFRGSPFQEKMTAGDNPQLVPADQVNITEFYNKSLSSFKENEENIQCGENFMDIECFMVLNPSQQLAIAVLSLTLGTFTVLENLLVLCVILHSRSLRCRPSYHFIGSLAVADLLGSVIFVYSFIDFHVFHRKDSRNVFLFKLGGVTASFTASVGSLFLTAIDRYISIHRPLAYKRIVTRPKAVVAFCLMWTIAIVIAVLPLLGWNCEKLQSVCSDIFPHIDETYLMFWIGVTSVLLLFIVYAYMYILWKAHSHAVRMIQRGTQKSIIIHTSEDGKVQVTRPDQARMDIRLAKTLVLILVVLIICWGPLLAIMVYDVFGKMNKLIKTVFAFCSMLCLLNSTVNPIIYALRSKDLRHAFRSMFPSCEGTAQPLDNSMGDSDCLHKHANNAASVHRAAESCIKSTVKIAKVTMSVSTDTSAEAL

## CNC(=O)[C@@H](NC(=O)c1ccc(C2CC2)c(-c2ccc(F)nc2)c1)C(C)(C)C [Example 58, 4-Cyclopropyl-N-[(2S)-3,3-dimethyl-1-(methylamino)-1-oxobutan-2-yl]-3-(6-fluoropyridin-3-yl)benzamide]
Human CB2 receptors
  EC50: 11.8 nM
Human CB1 receptors
  EC50: 388 nM

## Cc1nc(C(C)(C)NC(=O)c2ccc(N3CC(F)(F)C3)c(OCC3CC3)c2)no1 [Example 10, 3-(Cyclopropylmethoxy)-4-(3,3-difluoroazetidin-1-yl)-N-[2-(5-methyl-1,2,4-oxadiazol-3-yl)propan-2-yl]benzamide]
Human CB2 receptors
  EC50: 32.9 nM
Human CB1 receptors
  EC50: > 10000 nM

## CNC(=O)[C@H](CC(C)C)NC(=O)c1ccc(C2CC2)c(OCC2CC2)c1 [Example 19, N^2-[4-cyclopropyl-3-(cyclopropylmethoxy)benzoyl]-N-methyl-L-leucinamide]
Human CB2 receptors
  EC50: 19.6 nM
Human CB1 receptors
  EC50: > 10000 nM

## NC(=O)[C@@H]1CC(F)(F)CN1C(=O)c1ccc(C2CC2)c(-c2ccc(F)nc2)c1 [Example 57, 1-[4-Cyclopropyl-3-(6-fluoropyridin-3-yl)benzoyl]-4,4-difluoro-L-prolinamide]
Human CB2 receptors; [1]
  EC50: 274 nM
Human CB1 receptors
  EC50: > 10000 nM

## Cc1nc([C@@](C)(CC2CC2)NC(=O)c2ccc(C3CC3)c(OC(C)C)c2)no1 [Example 49, 4-Cyclopropyl-N-[(2R)-1-cyclopropyl-2-(5-methyl-1,2,4-oxadiazol-3-yl)propan-2-yl]-3-[(propan-2-yl)oxy]benzamide]
Human CB2 receptors
  EC50: 42.1 nM
Human CB1 receptors
  EC50: > 10000 nM

## NC(=O)[C@@H]1CC(F)(F)CN1C(=O)c1ccc(C2CC2)c(OCCF)c1 [Example 40, 1-[4-Cyclopropyl-3-(2-fluoroethoxy)benzoyl]-4,4-difluoro-L-prolinamide]
Human CB2 receptors; [1]
  EC50: 216 nM
Human CB1 receptors
  EC50: > 10000 nM

## C[C@](CC(N)=O)(NC(=O)c1ccc(C2CC2)c(OCC(F)(F)F)c1)C1CC1 [Example 36, (+)-N-[4-amino-2-cyclopropyl-4-oxobutan-2-yl]-4-cyclopropyl-3-(2,2,2-trifluoroethoxy)benzamide]
Human CB2 receptors
  EC50: 33.9 nM
Human CB1 receptors
  EC50: > 10000 nM

## CCC(CC)(NC(=O)c1ccc(C2CC2)c(OCC2CC2)c1)C(N)=O [Example 18, N-(3-Carbamoylpentan-3-yl)-4-cyclopropyl-3-(cyclopropylmethoxy)benzamide]
Human CB2 receptors; [1]
  EC50: 233 nM
Human CB1 receptors
  EC50: > 10000 nM

## Cc1ccc(C(=O)N[C@@H](CC(C)C)C(N)=O)cc1OCC1CC1 [Example 1, N-[(2S)-1-amino-4-methyl-1-oxopentan-2-yl]-3-(cyclopropylmethoxy)-4-methylbenzamide]
Human CB2 receptors; [1]
  EC50: 136 nM
Human CB1 receptors
  EC50: > 10000 nM

## NC(=O)CC1(NC(=O)c2ccc(C3CC3)c(OCC(F)(F)F)c2)CS(=O)(=O)C1 [Example 27, N-[3-(2-Amino-2-oxoethyl)-1,1-dioxothietan-3-yl]-4-cyclopropyl-3-(2,2,2-trifluoroethoxy)benzamide]
Human CB2 receptors
  EC50: 98 nM
Human CB1 receptors
  EC50: > 10000 nM

## Cc1nc([C@](C)(CC2CC2)NC(=O)c2ccc(C3CC3)c(OCC(F)(F)F)c2)no1 [Example 26, (+)-4-Cyclopropyl-N-[1-cyclopropyl-2-(5-methyl-1,2,4-oxadiazol-3-yl)propan-2-yl]-3-(2,2,2-trifluoroethoxy)benzamide]
Human CB2 receptors
  EC50: 36.3 nM
Human CB1 receptors
  EC50: > 10000 nM

## CNC(=O)[C@@H](NC(=O)c1ccc(C2CC2)c(-c2ccnn2C)c1)C(C)(C)C [Example 56, 4-Cyclopropyl-N-[(2S)-3,3-dimethyl-1-(methylamino)-1-oxobutan-2-yl]-3-(1-methyl-1H-pyrazol-5-yl)benzamide]
Human CB2 receptors; [1]
  EC50: 140 nM
Human CB1 receptors
  EC50: > 10000 nM

## C[C@@](CC(N)=O)(NC(=O)c1ccc(C2CC2)c(-c2ccc(F)nc2)c1)C1CC1 [Example 53, N-[(2S)-4-Amino-2-cyclopropyl-4-oxobutan-2-yl]-4-cyclopropyl-3-(6-fluoropyridin-3-yl)benzamide]
Human CB2 receptors
  EC50: 184 nM
Human CB1 receptors
  EC50: > 10000 nM

## CCOC(=O)C(CC)(CC)NC(=O)c1ccc(C2CC2)c(OCC2CC2)c1 [Example 7, Ethyl 2-[4-cyclopropyl-3-(cyclopropylmethoxy)benzamido]-2-ethylbutanoate]
Human CB2 receptors
  EC50: 1.44 nM
Human CB1 receptors
  EC50: > 10000 nM

## Cc1nc(C(NC(=O)c2ccc(C3CC3)c(OC(C)C)c2)C2(C)COC2)no1 (stereo not shown) [Example 68, 4-Cyclopropyl-N-[(5-methyl-1,2,4-oxadiazol-3-yl)(3-methyloxetan-3-yl)methyl]-3-[(propan-2-yl)oxy]benzamide]
Human CB2 receptors; [1]
  EC50: 264 nM
Human CB1 receptors
  EC50: > 10000 nM

## CNC(=O)[C@@H](NC(=O)c1ccc(C2CC2)c(OCC(F)(F)F)c1)C(C)(C)C [Example 41, 4-Cyclopropyl-N-[(2S)-3,3-dimethyl-1-(methylamino)-1-oxobutan-2-yl]-3-(2,2,2-trifluoroethoxy)benzamide]
Human CB2 receptors
  EC50: 10 nM
Human CB1 receptors
  EC50: 586 nM

## CCC(CC)(NC(=O)c1ccc(C2CC2)c(OCC2CC2)c1)C(=O)O [Example 8, 2-[4-Cyclopropyl-3-(cyclopropylmethoxy)benzamido]-2-ethylbutanoic acid]
Human CB2 receptors; [1]
  EC50: 2170 nM
Human CB1 receptors
  EC50: > 10000 nM

## C[C@](CC(N)=O)(NC(=O)c1ccc(C2CC2)c(N2CCC(F)(F)C2)c1)C1CC1 [Example 61, N-[(2R)-4-Amino-2-cyclopropyl-4-oxobutan-2-yl]-4-cyclopropyl-3-(3,3-difluoropyrrolidin-1-yl)benzamide]
Human CB2 receptors
  EC50: 2.5 nM
Human CB1 receptors
  EC50: 1790 nM

## Cc1nc([C@](C)(CC2CC2)NC(=O)c2ccc(C3CC3)c(-c3ccc(F)nc3)c2)no1 [Example 60, 4-Cyclopropyl-N-[(2S)-1-cyclopropyl-2-(5-methyl-1,2,4-oxadiazol-3-yl)propan-2-yl]-3-(6-fluoropyridin-3-yl)benzamide]
Human CB2 receptors
  EC50: 98.4 nM
Human CB1 receptors
  EC50: > 10000 nM

## Cn1nccc1-c1cc(C(=O)N2CC(F)(F)C[C@H]2C(N)=O)ccc1C1CC1 [Example 55, 1-[4-Cyclopropyl-3-(1-methyl-1H-pyrazol-5-yl)benzoyl]-4,4-difluoro-L-prolinamide]
Human CB2 receptors; [1]
  EC50: 1910 nM
Human CB1 receptors
  EC50: > 10000 nM

## C[C@](CC(N)=O)(NC(=O)c1ccc(C2CC2)c(-c2ccc(F)nc2)c1)C1CC1 [Example 52, N-[(2R)-4-Amino-2-cyclopropyl-4-oxobutan-2-yl]-4-cyclopropyl-3-(6-fluoropyridin-3-yl)benzamide]
Human CB2 receptors
  EC50: 9.76 nM
Human CB1 receptors
  EC50: > 10000 nM

## Cc1nc([C@](C)(CS(C)(=O)=O)NC(=O)c2ccc(C3CC3)c(OCC3CC3)c2)no1 [Example 21, 4-Cyclopropyl-3-(cyclopropylmethoxy)-N-[(2R)-1-(methanesulfonyl)-2-(5-methyl-1,2,4-oxadiazol-3-yl)propan-2-yl]benzamide]
Human CB2 receptors
  EC50: 297 nM
Human CB1 receptors
  EC50: > 10000 nM

## NC(=O)CC1(NC(=O)c2ccc(C3CC3)c(OCC3CC3)c2)CS(=O)(=O)C1 [Example 16, N-[3-(2-Amino-2-oxoethyl)-1,1-dioxothietan-3-yl]-4-cyclopropyl-3-(cyclopropylmethoxy)benzamide]
Human CB2 receptors
  EC50: 2.65 nM
Human CB1 receptors
  EC50: > 10000 nM

## CC(C)(C)c1nc(-c2ccc(C3CC3)c(OCC(F)(F)F)c2)no1 [Example 23, 5-tert-Butyl-3-[4-cyclopropyl-3-(2,2,2-trifluoroethoxy)phenyl]-1,2,4-oxadiazole]
Human CB2 receptors
  EC50: 25.9 nM
Human CB1 receptors
  EC50: > 10000 nM

## NC(=O)[C@@H]1CC(F)(F)CN1C(=O)c1ccc(C2CC2)c(OCC(F)(F)F)c1 [Example 42, 1-[4-Cyclopropyl-3-(2,2,2-trifluoroethoxy)benzoyl]-4,4-difluoro-L-prolinamide]
Human CB2 receptors; [1]
  EC50: 134 nM
Human CB1 receptors
  EC50: > 10000 nM

## C[C@@](CC(N)=O)(NC(=O)c1ccc(C2CC2)c(OCC(F)(F)F)c1)C1CC1 [Example 51, N-[(2S)-4-Amino-2-cyclopropyl-4-oxobutan-2-yl]-4-cyclopropyl-3-(2,2,2-trifluoroethoxy)benzamide]
Human CB2 receptors
  EC50: 80.8 nM
Human CB1 receptors
  EC50: > 10000 nM

## Cc1nc([C@@](C)(CC2CC2)NC(=O)c2ccc(C3CC3)c(N3CCC(F)(F)C3)c2)no1 [Example 63, 4-Cyclopropyl-N-[(2R)-1-cyclopropyl-2-(5-methyl-1,2,4-oxadiazol-3-yl)propan-2-yl]-3-(3,3-difluoropyrrolidin-1-yl)benzamide]
Human CB2 receptors
  EC50: 3.83 nM
Human CB1 receptors
  EC50: 872 nM

## CC(C)C[C@H](NC(=O)c1ccc(C2CC2)c(OCC2CC2)c1)C(N)=O [Example 4, N^2-[4-Cyclopropyl-3-(cyclopropylmethoxy)benzoyl]-L-leucinamide]
Human CB2 receptors
  EC50: 18 nM
Human CB1 receptors
  EC50: > 10000 nM

## CC(C)(NC(=O)c1ccc(N2CC(F)(F)C2)c(OCC2CC2)c1)c1noc(N)n1 [Example 11, N-[2-(5-Amino-1,2,4-oxadiazol-3-yl)propan-2-yl]-3-(cyclopropylmethoxy)-4-(3,3-difluoroazetidin-1-yl)benzamide]
Human CB2 receptors
  EC50: 98.7 nM
Human CB1 receptors
  EC50: > 10000 nM
